In ChEMBL document CHEMBL1129098, “Structure-activity dependency of new bacterial tryptophanyl tRNA synthetase inhibitors” (Bioorg Med Chem Lett, 1996):
In brackets after ≈: the same amount, converted by molar mass.

How the values were obtained:
Staphylococcus aureus = experiment: Antibacterial activity against Staphylococcus aureus; format: functional
[1] = Inhibition of tryptophanyl tRNA synthetase isolated from Staphylococcus aureus

SMILES | MIC (Staphylococcus aureus) [µg/mL] | I50 [1] [ng/mL]
CNC1=NC(=O)[C@H]([C@H](CC(=O)OC(C)(C)C)c2c[nH]c3ccccc23)O1 | > 512 | > 100000
CNC1=NC(=O)[C@H]([C@@H](O)c2c[nH]c3ccccc23)O1 | > 64 | 44000
CNC1=NC(=O)[C@H]([C@@H](C)c2c[nH]c3ccccc23)O1 | 8 (≈ 31.1 µM) | 500
CNC1=NC(=O)[C@H]([C@@H](CC(=O)OC(C)(C)C)c2c[nH]c3ccccc23)O1 | > 512 | > 100000
CC[C@@H](c1c[nH]c2ccccc12)[C@@H]1OC(NC)=NC1=O | > 512 | 22000
CC[C@H](c1c[nH]c2ccccc12)[C@@H]1OC(NC)=NC1=O | 64 (≈ 236 µM) | 250
CNC1=NC(=O)[C@](C)([C@H](C)c2c[nH]c3ccccc23)O1 | 64 (≈ 236 µM) | 1200
CNC1=NC(=O)[C@H]([C@@H](CC(=O)O)c2c[nH]c3ccccc23)O1 | > 512 | > 100000
CNC1=NC(=O)[C@H]([C@H](CC(=O)O)c2c[nH]c3ccccc23)O1 | > 512 | > 100000
CNC1=NC(=O)[C@H]([C@](C)(O)c2c[nH]c3ccccc23)O1 | > 64 | > 100000
CNC1=NC(=O)[C@H]([C@H](O)c2c[nH]c3ccccc23)O1 | > 64 | 4000
CNC1=NC(=O)[C@H]([C@H](C)c2c[nH]c3ccccc23)O1 [INDOMYCIN] | 0.125 (≈ 0.486 µM) | 16

Second part, led by results:

MIC (Staphylococcus aureus) [µg/mL] | SMILES | I50 [1] [ng/mL]
32 (≈ 118 µM) | CNC1=NC(=O)[C@H](C(C)(C)c2c[nH]c3ccccc23)O1 | 580
> 512 | CNC1=NC(=O)[C@H]([C@H](CN)c2c[nH]c3ccccc23)O1 | > 100000
64 (≈ 212 µM) | CNC1=NC(=O)[C@H]([C@H](C[N+](=O)[O-])c2c[nH]c3ccccc23)O1 | 2300
0.25 (≈ 0.915 µM) | CNC1=NC(=O)[C@H]([C@@](C)(O)c2c[nH]c3ccccc23)O1 | 46
> 512 | CNC1=NC(=O)[C@H]([C@H](/C=N\O)c2c[nH]c3ccccc23)O1 | > 100000
> 512 | CNC1=NC(=O)[C@](C)([C@@H](C)c2c[nH]c3ccccc23)O1 | > 100000
> 64 | CNC1=NC(=O)[C@H]([C@@H](C[N+](=O)[O-])c2c[nH]c3ccccc23)O1 | > 100000
64 (≈ 263 µM) | CNC1=NC(=O)[C@H](Cc2c[nH]c3ccccc23)O1 | 1550
